{
  "source": "ChEMBL document CHEMBL4715780",
  "about": "“Biological evaluation of tetracationic compounds based on two 1,4-diazabicyclo[2.2.2]octane moieties connected by different linkers” (Bioorg Med Chem, 2016)",
  "assay_type_in_all_cases": "functional",
  "key": {"Staphylococcus aureus [1]": {"system": "Staphylococcus aureus", "test": "Antibacterial activity against […] Staphylococcus aureus ATCC 25923 assessed as concentration required to inhibit visible growth by CLSI protocol based serial microdilution method"}, "Staphylococcus aureus [2]": {"system": "Staphylococcus aureus", "test": "Antibacterial activity against […] Staphylococcus aureus ATCC 25923 assessed as bacterial growth inhibition by CLSI protocol based serial microdilution method"}, "Enterococcus faecalis [3]": {"system": "Enterococcus faecalis", "test": "Antibacterial activity against Enterococcus faecalis ATCC 51299 assessed as concentration required to inhibit visible growth by CLSI protocol based serial microdilution method"}, "Enterococcus faecalis [4]": {"system": "Enterococcus faecalis", "test": "Antibacterial activity against Enterococcus faecalis ATCC 51299 assessed as bacterial growth inhibition by CLSI protocol based serial microdilution method"}, "Pseudomonas aeruginosa [5]": {"system": "Pseudomonas aeruginosa", "test": "Antibacterial activity against Pseudomonas aeruginosa ATCC 9027 assessed as concentration required to inhibit visible growth by CLSI protocol based serial microdilution method"}, "Pseudomonas aeruginosa [6]": {"system": "Pseudomonas aeruginosa", "test": "Antibacterial activity against Pseudomonas aeruginosa ATCC 9027 assessed as bacterial growth inhibition by CLSI protocol based serial microdilution method"}, "Escherichia coli [7]": {"system": "Escherichia coli", "test": "Antibacterial activity against Escherichia coli ATCC 25922 assessed as concentration required to inhibit visible growth by CLSI protocol based serial microdilution method"}, "Escherichia coli [8]": {"system": "Escherichia coli", "test": "Antibacterial activity against Escherichia coli ATCC 25922 assessed as bacterial growth inhibition by CLSI protocol based serial microdilution method"}, "Salmonella typhimurium [9]": {"system": "Salmonella typhimurium", "test": "Antibacterial activity against Salmonella enterica ATCC 14028 assessed as concentration required to inhibit visible growth by CLSI protocol based serial microdilution method", "conditions": "Salmonella enterica subsp. enterica serovar Typhimurium"}, "Salmonella typhimurium [10]": {"system": "Salmonella typhimurium", "test": "Antibacterial activity against Salmonella enterica ATCC 14028 assessed as bacterial growth inhibition by CLSI protocol based serial microdilution method", "conditions": "Salmonella enterica subsp. enterica serovar Typhimurium"}, "Citrobacter freundii [11]": {"system": "Citrobacter freundii", "test": "Antibacterial activity against Citrobacter freundii ATCC 8090 assessed as concentration required to inhibit visible growth by CLSI protocol based serial microdilution method"}, "Citrobacter freundii [12]": {"system": "Citrobacter freundii", "test": "Antibacterial activity against Citrobacter freundii ATCC 8090 assessed as bacterial growth inhibition by CLSI protocol based serial microdilution method"}, "Proteus vulgaris [13]": {"system": "Proteus vulgaris", "test": "Antibacterial activity against Proteus vulgaris ATCC 6380 assessed as concentration required to inhibit visible growth by CLSI protocol based serial microdilution method"}, "Proteus vulgaris [14]": {"system": "Proteus vulgaris", "test": "Antibacterial activity against Proteus vulgaris ATCC 6380 assessed as bacterial growth inhibition by CLSI protocol based serial microdilution method"}, "Staphylococcus aureus [15]": {"system": "Staphylococcus aureus", "test": "Antibacterial activity against methicillin-resistant Staphylococcus aureus CEMTC 675 assessed as concentration required to inhibit visible growth by CLSI protocol based serial microdilution method"}, "Staphylococcus aureus [16]": {"system": "Staphylococcus aureus", "test": "Antibacterial activity against methicillin-resistant Staphylococcus aureus CEMTC 675 assessed as bacterial growth inhibition by CLSI protocol based serial microdilution method"}, "Staphylococcus aureus [17]": {"system": "Staphylococcus aureus", "test": "Antibacterial activity against methicillin-resistant Staphylococcus aureus CEMTC 707 assessed as concentration required to inhibit visible growth by CLSI protocol based serial microdilution method"}, "Staphylococcus aureus [18]": {"system": "Staphylococcus aureus", "test": "Antibacterial activity against methicillin-resistant Staphylococcus aureus CEMTC 707 assessed as bacterial growth inhibition by CLSI protocol based serial microdilution method"}, "Staphylococcus aureus [19]": {"system": "Staphylococcus aureus", "test": "Antibacterial activity against methicillin-resistant Staphylococcus aureus CEMTC 1695 assessed as concentration required to inhibit visible growth by CLSI protocol based serial microdilution method"}, "Staphylococcus aureus [20]": {"system": "Staphylococcus aureus", "test": "Antibacterial activity against methicillin-resistant Staphylococcus aureus CEMTC 1695 assessed as bacterial growth inhibition by CLSI protocol based serial microdilution method"}, "Staphylococcus aureus [21]": {"system": "Staphylococcus aureus", "test": "Antibacterial activity against methicillin-resistant Staphylococcus aureus CEMTC 1732 assessed as concentration required to inhibit visible growth by CLSI protocol based serial microdilution method"}, "Staphylococcus aureus [22]": {"system": "Staphylococcus aureus", "test": "Antibacterial activity against methicillin-resistant Staphylococcus aureus CEMTC 1732 assessed as bacterial growth inhibition by CLSI protocol based serial microdilution method"}, "Staphylococcus aureus [23]": {"system": "Staphylococcus aureus", "test": "Antibacterial activity against methicillin-resistant Staphylococcus aureus CEMTC 1733 assessed as concentration required to inhibit visible growth by CLSI protocol based serial microdilution method"}, "Staphylococcus aureus [24]": {"system": "Staphylococcus aureus", "test": "Antibacterial activity against methicillin-resistant Staphylococcus aureus CEMTC 1733 assessed as bacterial growth inhibition by CLSI protocol based serial microdilution method"}, "Staphylococcus aureus [25]": {"system": "Staphylococcus aureus", "test": "Antibacterial activity against methicillin-resistant Staphylococcus aureus CEMTC 1850 assessed as concentration required to inhibit visible growth by CLSI protocol based serial microdilution method"}, "Staphylococcus aureus [26]": {"system": "Staphylococcus aureus", "test": "Antibacterial activity against methicillin-resistant Staphylococcus aureus CEMTC 1850 assessed as bacterial growth inhibition by CLSI protocol based serial microdilution method"}},
  "data": [
    {"sequence": "GENTAMICIN", "values": [
      {"measurement": "MBC", "setting": "Staphylococcus aureus [1]", "result": 100, "unit": "µg/mL"},
      {"measurement": "MIC", "setting": "Staphylococcus aureus [2]", "result": 50, "unit": "µg/mL"},
      {"measurement": "MBC", "setting": "Enterococcus faecalis [3]", "result": 100, "unit": "µg/mL"},
      {"measurement": "MIC", "setting": "Enterococcus faecalis [4]", "result": 50, "unit": "µg/mL"},
      {"measurement": "MBC", "setting": "Pseudomonas aeruginosa [5]", "result": "> 400", "unit": "µg/mL"},
      {"measurement": "MIC", "setting": "Pseudomonas aeruginosa [6]", "result": "> 400", "unit": "µg/mL"},
      {"measurement": "MBC", "setting": "Escherichia coli [7]", "result": 100, "unit": "µg/mL"},
      {"measurement": "MIC", "setting": "Escherichia coli [8]", "result": 50, "unit": "µg/mL"},
      {"measurement": "MBC", "setting": "Salmonella typhimurium [9]", "result": 1.6, "unit": "µg/mL"},
      {"measurement": "MIC", "setting": "Salmonella typhimurium [10]", "result": 0.8, "unit": "µg/mL"},
      {"measurement": "MBC", "setting": "Citrobacter freundii [11]", "result": 0.8, "unit": "µg/mL"},
      {"measurement": "MIC", "setting": "Citrobacter freundii [12]", "result": 0.4, "unit": "µg/mL"},
      {"measurement": "MBC", "setting": "Proteus vulgaris [13]", "result": 1.6, "unit": "µg/mL"},
      {"measurement": "MIC", "setting": "Proteus vulgaris [14]", "result": 0.8, "unit": "µg/mL"},
      {"measurement": "MBC", "setting": "Staphylococcus aureus [15]", "result": "> 100", "unit": "µg/mL"},
      {"measurement": "MIC", "setting": "Staphylococcus aureus [16]", "result": "> 100", "unit": "µg/mL"},
      {"measurement": "MBC", "setting": "Staphylococcus aureus [17]", "result": 1, "unit": "µg/mL"},
      {"measurement": "MIC", "setting": "Staphylococcus aureus [18]", "result": 1, "unit": "µg/mL"},
      {"measurement": "MBC", "setting": "Staphylococcus aureus [19]", "result": "> 100", "unit": "µg/mL"},
      {"measurement": "MIC", "setting": "Staphylococcus aureus [20]", "result": "> 100", "unit": "µg/mL"},
      {"measurement": "MBC", "setting": "Staphylococcus aureus [21]", "result": "> 100", "unit": "µg/mL"},
      {"measurement": "MIC", "setting": "Staphylococcus aureus [22]", "result": "> 100", "unit": "µg/mL"},
      {"measurement": "MBC", "setting": "Staphylococcus aureus [23]", "result": 1, "unit": "µg/mL"},
      {"measurement": "MIC", "setting": "Staphylococcus aureus [24]", "result": 1, "unit": "µg/mL"},
      {"measurement": "MBC", "setting": "Staphylococcus aureus [25]", "result": "> 100", "unit": "µg/mL"},
      {"measurement": "MIC", "setting": "Staphylococcus aureus [26]", "result": 10, "unit": "µg/mL"}
    ]}
  ]
}
